From patent US8975295B2, “Modulation of zinc levels to improve tissue properties” (Precision Dermatology, Inc., priority 2002, dated 2015)
Where two headings read alike, the source gives them in different places.

How the values were obtained:
[1] = tested on: elastase; test: Elastase activity with divalent cations in PBS, read at 405 nm; format: biochemical; conditions: for Elastase activity: 0.005M to 0.01M cation concentration in PBS; for sensitivity of elastase to the cation (comparison of the ions): read every minute for 15 minutes
Experimental: An assay was run that involved varying concentrations of each divalent cation, ranging from concentrations of 0.005M to 1.0M, in phosphate buffered saline (PBS). The positive control contained no cations, while the negative control contained no elastase. Solutions were read at 405 nm every minute for 15 minutes under controlled conditions. The optical density value of the negative control, which represented background interference, was subtracted from each result. These corrected optical density values from the two trials were averaged.

[2] = tested on: epidermis
Experimental: (§1) To prepare these solutions, a 1.0 M stock of zinc acetate [ZnAc*(H2O)2] (Mallinkrodt Lot 8740 KPRK) was prepared in sterile phosphate buffered saline (PBS, pH 7.2, Gibco BRL Lot #1111327) by dissolving 109.75 g in 500 mL. To 0.2 ml of Cetaphil® moisturizer base was added 20 μl of solution a, b, c, or d depending upon group (corresponding to Groups “A,” “B,” “C,” or “D”). For group A, added 20 μl PBS alone to 180 μl Cetaphil×84 tubes. For group B, added 20 μl 1.0M Zn to 180 μl Cetaphil×84 tubes. For group C, added 200 μl of 1.0M Zn to 19.8 ml PBS, vortexed, labeled as 0.01M Zn, and added 20 μl of […] to 180 μl Cetaphil×84 tubes. For group D, added 200 μl 0.01M Zn to 19.8 ml PBS, vortexed, labeled as 0.1 mM Zn, and added 20 μl […] to 180 μl Cetaphil×84 tubes. After addition of samples to moisturizer base, the samples were mixed to homogeneity and stored at 4° C. overnight. At N=4 per treatment group, C57 Black Six mice at 8 weeks of age were anesthetized with 3% isoflurane by inhalation, and were shaved at mid-scapular dorsal region. Moisturizer was applied daily at 0.2 cc per day for each group for a 21 day period. After 21 days application, the treated skin segment was harvested en bloc and subdivided into three equal portions: a cranial portion, a left lateral portion, and a right lateral portion. The cranial portion and the left lateral portion were fixed in 10% neutral buffered formalin for 12-16 hours, then rinsed in 70% ethanol and embedded in paraffin. The right lateral portion was snap frozen in OCT medium at the time of harvest and stored at −35° C. until use.
Paraffin-embedded specimens from animals treated in example 1 above were sectioned at 4-6 microns, deparaffinized, and stained with a combination of Verhoeff elastica stain and the Masson trichrome stain for morphological assessment of epidermal thickness. All procedures and analyses were performed by blinded observers. […] Images were analyzed using Image Pro Plus software (Media Cybernetics, Silver Spring, Md.) to determine total cross-sectional area of epidermis over standardized lengths. Mean and standard error were assessed using Statview (Abacus Concepts, Berkeley, Calif.), with comparisons made using ANOVA repeated measures and significance determined at 95% with post-hoc testing using Fisher PLSD or Scheffe F-test.
Paraffin-embedded specimens from animals were treated in Example 1 except that the doses of 10.0 μM Zn^++, 1.0 μM Zn^++, 0.1 μM Zn^++, and the control were applied for 42 days. Specimens were fixed and embedded as above, sectioned at 4-6 microns, deparaffinized, and stained with a combination of Verhoeff elastica stain and the Masson trichrome stain for morphological assessment of epidermal thickness. All procedures and analyses were performed by blinded observers. […] Images were analyzed using Image Pro Plus software (Media Cybernetics, Silver Spring, Md.) to determine total cross-sectional area of epidermis over standardized lengths. Mean and standard error were assessed using Statview (Abacus Concepts, Berkeley, Calif.), with comparisons made using ANOVA repeated measures and significance determined at 95% with post-hoc testing using Fisher PLSD or Scheffe F-test.

[3] = tested on: murine skin; conditions: for local irritation of skin: 21 days topical
Experimental: as §1
All procedures and analyses were performed by blinded observers.

[4] = tested on: deep white fat; conditions: 10 μM Zn++, 21 days, lateral abdomen; base only 29375.425; P = 0.0001
Experimental: (§2) All procedures and analyses were performed by blinded observers. […] Images were analyzed using Image Pro Plus software (Media Cybernetics, Silver Spring, Md.) to determine total cross-sectional area of epidermis over standardized lengths. Mean and standard error were assessed using Statview (Abacus Concepts, Berkeley, Calif.), with comparisons made using ANOVA repeated measures and significance determined at 95% with post-hoc testing using Fisher PLSD or Scheffe F-test.

[5] = tested on: hypodermal brown fat; conditions: 21 days, base only 456566.375
Experimental: as §1, §2

SMILES | Elastase activity [1] | sensitivity of elastase to the cation (comparison of the ions) [1] | Epidermal area across standardized epidermal lengths, Mean ([2]; 0.1 μM Zn++ (Z low), 42 days, base only 6728.286) [pixels] | Epidermal area across standardized epidermal lengths, Mean ([2]; 1.0 μM Zn++ (Z med), 42 days, base only 6728.286) [pixels] | Epidermal area across standardized epidermal lengths, Mean ([2]; 10 μM Zn++ (Z high), 42 days, base only 6728.286, P = 0.0014) [pixels] | Epidermal area across standardized epidermal lengths, Mean ([2]; 10.0 μM Zn++ (Z low), 21 days, base only 18221.646) [pixels] | Epidermal area across standardized epidermal lengths, Mean ([2]; 1.0 mM Zn++ (Z med), 21 days, base only 18221.646) [pixels] | Epidermal area across standardized epidermal lengths, Mean ([2]; 100 mM Zn++ (Z high), 21 days, base only 18221.646) [pixels] | elastin content of skin (black elastic fibers, Verhoeff Elastica stain) ([3]; 21 days daily topical, 10 μM, 1.0 mM, 100 mM Zn++ in moisturizer base vs base only) | local irritation of skin ([3]; high dose, 100 mM Zn++ (Z high)) | local irritation of skin ([3]; lower doses (Z low, Z med)) | elastase function as the concentration of zinc-containing components increases ([1]; increasing concentration) | Cross-sectional deep adipose area across standardized epidermal lengths, Mean [4] [pixels] | Cross-sectional hypodermal adipose area across standardized epidermal lengths, Mean ([5]; 10 μM Zn++ (Z low), P=0.0001) [pixels] | Cross-sectional hypodermal adipose area across standardized epidermal lengths, Mean ([5]; 1.0 mM Zn++ (Z med)) [pixels] | Cross-sectional hypodermal adipose area across standardized epidermal lengths, Mean ([5]; 100 mM Zn++ (Z high)) [pixels]
[Ca+2] [Ca^2+] | increased | most sensitive | – | – | – | – | – | – | – | – | – | – | – | – | – | –
CC(=O)[O-].CC(=O)[O-].[Zn+2] [Zn^++, zinc acetate] | increased | most constantly inhibited | 6710.000 | 7724.190 | 7203.875 | 16786.125 | 20799.188 | 27365.292 | dose-dependant increases in the elastin content of skin | epidermal sloughing and irritation occurs | without local signs of irritation | stabilizing, then destabilizing, then restabilizing elastase function | 73011.321 | 436809.417 | 377185.833 | 132251.333
[Mg+2] [Mg^2+] | increased | least sensitive | – | – | – | – | – | – | – | – | – | – | – | – | – | –
